In article PMC9862096, “Interaction of a Homologous Series of Amphiphiles with P-glycoprotein in a Membrane Environment—Contributions of Polar and Non-Polar Interactions” (Pharmaceutics, 2023):
Where two headings read alike, the source gives them in different places.

Columns and labels:
mP–gp = target: T1, mP–gp (Mus musculus, UniProt P21447); assay: Photolabeling of P–gp with [125I]-IAAP / IAAP displacement; format: binding; details: Equation (S2), total concentrations; native membranes 1.0 mg/mL; read-out: dissociation constant, competitive inhibition of IAAP binding
T1 construct: made in house; host or cells: High-Five insect cells (Invitrogen), recombinant baculovirus; total membrane vesicles
T1 sequence (P21447 whole entry): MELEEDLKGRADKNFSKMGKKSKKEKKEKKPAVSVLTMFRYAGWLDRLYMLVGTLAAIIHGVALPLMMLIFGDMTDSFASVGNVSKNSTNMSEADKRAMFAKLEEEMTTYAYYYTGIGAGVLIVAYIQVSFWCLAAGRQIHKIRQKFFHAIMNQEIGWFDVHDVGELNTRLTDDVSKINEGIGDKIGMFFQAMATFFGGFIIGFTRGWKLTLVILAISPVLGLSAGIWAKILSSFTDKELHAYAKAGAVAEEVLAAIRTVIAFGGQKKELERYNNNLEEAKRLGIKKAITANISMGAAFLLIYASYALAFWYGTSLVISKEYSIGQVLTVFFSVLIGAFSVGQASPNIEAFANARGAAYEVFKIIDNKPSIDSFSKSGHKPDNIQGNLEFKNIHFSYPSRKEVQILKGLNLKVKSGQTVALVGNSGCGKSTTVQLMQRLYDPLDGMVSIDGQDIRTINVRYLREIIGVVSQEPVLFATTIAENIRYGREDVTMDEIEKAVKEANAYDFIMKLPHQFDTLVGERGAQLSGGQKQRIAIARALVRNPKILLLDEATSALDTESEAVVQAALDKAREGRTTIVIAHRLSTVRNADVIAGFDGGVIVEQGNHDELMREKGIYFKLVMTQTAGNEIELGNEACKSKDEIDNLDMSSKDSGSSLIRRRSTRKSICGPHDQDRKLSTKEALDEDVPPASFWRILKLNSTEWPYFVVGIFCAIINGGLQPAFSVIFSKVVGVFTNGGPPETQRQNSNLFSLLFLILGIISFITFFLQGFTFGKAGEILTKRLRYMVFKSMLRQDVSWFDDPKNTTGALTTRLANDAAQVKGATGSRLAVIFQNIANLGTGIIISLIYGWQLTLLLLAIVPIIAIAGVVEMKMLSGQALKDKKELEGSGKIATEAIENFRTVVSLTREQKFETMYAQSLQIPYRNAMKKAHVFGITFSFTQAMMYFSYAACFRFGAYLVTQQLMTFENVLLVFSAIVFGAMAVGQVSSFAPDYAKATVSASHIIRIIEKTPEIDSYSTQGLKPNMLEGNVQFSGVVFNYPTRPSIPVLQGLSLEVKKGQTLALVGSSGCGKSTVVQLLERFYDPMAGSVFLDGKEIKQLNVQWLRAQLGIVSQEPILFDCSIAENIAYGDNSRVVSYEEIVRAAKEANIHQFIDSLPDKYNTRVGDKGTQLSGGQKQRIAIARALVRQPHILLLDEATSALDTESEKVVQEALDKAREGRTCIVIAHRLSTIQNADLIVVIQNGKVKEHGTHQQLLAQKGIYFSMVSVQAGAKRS
Experimental: The native membranes of High-Five insect cells expressing mP–gp (1.0 mg/mL) were incubated at room temperature with the indicated concentrations of the inhibitor for 5 min. IAAP (5 to 7 nM) was later added, and the reaction mixture was further incubated for 5 min under subdued light. The samples were photocross-linked with 366 nm UV light for 10 min at room temperature, followed by electrophoresis and quantification, as described previously. The raw data are shown in the Supplementary Information (Figure S4). The results were first analyzed with the usual equation, considering the total concentration of IAAP and NBD amphiphile, as well as competitive inhibition of IAAP binding, see Supplementary Information (Equation (S2)). The dissociation constant considered for IAAP was taken from the literature, 412 nM [15]. The results were also analyzed with a formalism derived in this manuscript considering the distribution of the NBD amphiphile in the distinct environments (aqueous phase, lipid bilayer, and P–gp), the distribution of IAAP between the aqueous media and P–gp, and several equal and independent binding sites in P–gp’s binding pocket, Equation (10).
In this assay, in addition to the binding of the NBD amphiphiles to P–gp binding pocket, it is also necessary to consider the binding of IAAP. The concentration of IAAP used in the assay (5 nM) is several orders of magnitude smaller than that of the amphiphiles in study, and it is also smaller than the total concentration of P–gp (59 nM). Therefore, Equation (8) may be used to calculate the concentration of free ligand and protein. The fraction of IAAP bound to P–gp may then be calculated from Equation (10), where P^* is the concentration of P–gp available for IAAP binding. (10) IP/IT=−b−b^2−4ac/2aa=1; b=−1+KdIAAP/IT+P^*/IT; c=P^*/IT
The number of binding sites in P–gp binding pocket was varied from 1 to 5, and three situations were considered in the analysis: (i) full inhibition of IAAP binding when at least one NBD amphiphile is in the P–gp binding pocket ( i≥1 ), corresponding to P^*=P; (ii) inhibition of IAAP binding only when P–gp is fully saturated ( i=n ), corresponding to P^*=P+∑i=1n−1PLi; and (iii) an intermediate situation with IAAP displacement for i≥n−1 , corresponding to P^*=P+∑i=1n−2PLi .
The displacement of IAAP from P–gp binding pocket was calculated from Equation (11), where IP0 is the concentration of IAAP bound to P–gp in the absence of the NBD amphiphiles. (11) IAAP displacement %=100IP0−IP/IP0

mouse P–gp (mP–gp) = target: T2, mouse P–gp (mP–gp) (Mus musculus, UniProt P21447); assay: P–gp ATPase activity (vanadate-sensitive, end point Pi release) in native membranes; format: biochemical; details: for Emax: read-out: V1, maximum activation; for Effect on P–gp ATPase activity: native membranes, Figure 1
T2 construct: made in house; host or cells: High-Five insect cells (Invitrogen), recombinant baculovirus; total membrane vesicles
T2 sequence (P21447 whole entry): as above
Experimental: High-Five insect cells (Invitrogen) were infected with recombinant baculovirus carrying mouse P–gp (mP–gp) gene (Abcb1a). Membrane vesicles were prepared by hypotonic lysis of the insect cells, followed by ultracentrifugation to collect the membrane vesicles, as described in detail in reference. The native membranes obtained were suspended in storage buffer (45 mM Tris-HCl pH 7.5, 45 mM D-mannitol, 1.8 mM EGTA, 0.45% v/v aprotinin, 1.8 mM DTT, 0.9 mM AEBSF, and 10% v/v glycerol), aliquoted, and stored at −80 °C or in liquid nitrogen until use. The concentration of protein in the native membranes was quantified by the Sherman and Weismann method using Amido Black B dye.
The ATPase activity of P–gp in the High-Five insect cell membranes was measured by the end point Pi release assays, as described earlier with minor modifications. Native membranes were diluted in ATPase assay buffer (final concentrations: 41.2 mM Tris-MES pH = 6.8, 50 mM KCl, 5 mM NaN3, 2 mM EGTA, 1.03 mM Ouabain, 2 mM DTT, and 10 mM MgCl2), and the modulators were added from stocks in DMSO (final DMSO 1% v/v). The final concentration of protein was quantified, being ca. 0.1 mg/mL. Four samples were prepared at each modulator concentration, containing ATP at 5 mM, two of which also contained vanadate at 0.3 mM. P–gp specific activity was measured as vanadate-sensitive ATPase activity. The basal rate of ATP hydrolysis was 67 ± 4 nmol Pi mgP^−1 min^−1, with 37 ± 4 nmol Pi mgP^−1 min^−1 being sensitive to vanadate. The results obtained for the effect of the modulators on the ATPase activity in the presence and absence of vanadate are shown in the Supplementary Information (Figure S1).
The results were then analyzed with the formalism derived in this manuscript considering the distribution of the modulator in the distinct environments (aqueous phase, lipid bilayer and P-gp) and several equal and independent binding sites in P-gp’s binding pocket, Equations (3)–(9). The best fit was obtained with nonlinear least-square analysis using Microsoft Excel.
For the correct analysis of the results, the distribution of the amphiphiles in the distinct environments (aqueous media, lipid bilayer, and P–gp) must be considered. In addition, excess ligand should not be assumed. When considering that P–gp has several binding sites, the kinetic scheme that describes P–gp saturation with ligand is given by Equation (5). For details, see, e.g., references. (5) LW↔KPW→LbLLb LLb=KPW→LbLW VLb/VWLW+P↔β1PL1 PL1=β1PLWi LW+P↔βiPLi PLi=βiPLW^i n LW+P↔βnPLn PLn=βnPLW^n
The overall ATPase activity at each ligand concentration is calculated from the concentration of each protein species PLi and the corresponding ATPase activity Vi , (9) V=V0+∑i=1nPLi Vi
This formalism was used to describe the effect of the NBD amphiphiles on P–gp’s ATPase activity, considering a distinct ATPase activity for P–gp with a different number of amphiphile molecules in the binding pocket.

[1] = Equation (9), local concentrations, n = 1 binding sites, read-out: Kd, microscopic dissociation constant
[2] = Equation (9), local concentrations, n = 2 binding sites, read-out: Kd, microscopic dissociation constant
[3] = Equation (9), local concentrations, n = 3 binding sites, read-out: Kd, microscopic dissociation constant
[4] = Equation (9), local concentrations, n = 4 binding sites, read-out: Kd, microscopic dissociation constant
[5] = Equation (9), local concentrations, n = 5 binding sites, read-out: Kd, microscopic dissociation constant
[6] = Equation (9), n = 3, read-out: β1, macroscopic binding constant of the first ligand (converted)
[7] = Equation (9), n = 4, read-out: β1, macroscopic binding constant of the first ligand (converted)
[8] = Equation (9), n = 5, read-out: β1, macroscopic binding constant of the first ligand (converted)
[9] = Equation (S1), total modulator concentration, no constraint between K1 and K2, [75% confidence interval], read-out: K1, dissociation constant for P–gp activation
[10] = Equation (S1), total modulator concentration, no constraint between K1 and K2, [75% confidence interval], read-out: K2, dissociation constant for P–gp inhibition
[11] = Equation (S1), constraint K1≤K2 for NBD–C8
[12] = Equation (S1), no constraint between K1 and K2, [75% confidence interval], listed as NBD-C8
[13] = Equation (S1), no constraint between K1 and K2, [75% confidence interval]
[14] = Equation (S1), only activation for NBD–C4, constraint K1≤K2 for NBD–C8 and NBD–LysoMPE, [75% confidence interval]

SMILES	Ki (mP–gp) [µM]	Kd (mouse P–gp (mP–gp); [1]) [µM]	Kd (mouse P–gp (mP–gp); [2]) [µM]	Kd (mouse P–gp (mP–gp); [3]) [µM]	Kd (mouse P–gp (mP–gp); [4]) [µM]	Kd (mouse P–gp (mP–gp); [5]) [µM]	V1, ATPase activity of P–gp with 1 amphiphile bound (mouse P–gp (mP–gp); Equation (9), n = 1) [%]	V1, ATPase activity of P–gp with 1 amphiphile bound (mouse P–gp (mP–gp); Equation (9), n = 2) [%]	V2, ATPase activity of P–gp with 2 amphiphiles bound (mouse P–gp (mP–gp); Equation (9), n = 2) [%]	V1, ATPase activity of P–gp with 1 amphiphile bound (mouse P–gp (mP–gp); Equation (9), n = 3) [%]	V2, ATPase activity of P–gp with 2 amphiphiles bound (mouse P–gp (mP–gp); Equation (9), n = 3) [%]	V3, ATPase activity of P–gp with 3 amphiphiles bound (mouse P–gp (mP–gp); Equation (9), n = 3) [%]	Kd (mouse P–gp (mP–gp); [6]) [µM]	V1, ATPase activity of P–gp with 1 amphiphile bound (mouse P–gp (mP–gp); Equation (9), n = 4) [%]	V2, ATPase activity of P–gp with 2 amphiphiles bound (mouse P–gp (mP–gp); Equation (9), n = 4) [%]	V3, ATPase activity of P–gp with 3 amphiphiles bound (mouse P–gp (mP–gp); Equation (9), n = 4) [%]	V4, ATPase activity of P–gp with 4 amphiphiles bound (mouse P–gp (mP–gp); Equation (9), n = 4) [%]	Kd (mouse P–gp (mP–gp); [7]) [µM]	V1, ATPase activity of P–gp with 1 amphiphile bound (mouse P–gp (mP–gp); Equation (9), n = 5) [%]	V2, ATPase activity of P–gp with 2 amphiphiles bound (mouse P–gp (mP–gp); Equation (9), n = 5) [%]	other results
CCCCCCCCNc1ccc([N+](=O)[O-])c2nonc12 [NBD–C8]	4	3	11	4	4	6	286	388	0	112	403	65	1.28	113	260	317	62	1	122	275	Kd (mouse P–gp (mP–gp); Equation (9), n = 2, read-out: β1, macroscopic binding constant of the first ligand (converted)): 5.26 µM; V3, ATPase activity of P–gp with 3 amphiphiles bound (mouse P–gp (mP–gp); Equation (9), n = 5): 253%; V4, ATPase activity of P–gp with 4 amphiphiles bound (mouse P–gp (mP–gp); Equation (9), n = 5): 253%; V5, ATPase activity of P–gp with 5 amphiphiles bound (mouse P–gp (mP–gp); Equation (9), n = 5): 0%; Kd (mouse P–gp (mP–gp); [8]): 1.16 µM; Kd (mouse P–gp (mP–gp); Equation (S1), total modulator concentration, constraint K1≤K2 for NBD–C8 and NBD–LysoMPE, [75% confidence interval], read-out: K2, dissociation constant for P–gp inhibition): 29 µM; Kd (mouse P–gp (mP–gp); [9]): 17 µM; Kd (mouse P–gp (mP–gp); [10]): 29 µM; V2, residual activity at infinite modulator concentration (mouse P–gp (mP–gp); [11]): 0%; V1, maximum activation (mouse P–gp (mP–gp); [12]): 494 [380, 3000] %; V2, residual activity at infinite modulator concentration (mouse P–gp (mP–gp); [12]): 0 [0, 103] %; V2, residual activity at infinite modulator concentration (mouse P–gp (mP–gp); Equation (S1), no constraint between K1 and K2, [75% confidence interval], listed as NBD‐C8): 0%; Emax (mouse P–gp (mP–gp); [13]): 497%; V1, maximum activation (mouse P–gp (mP–gp); [14]): 494 % of the basal ATPase activity; V1, maximum activation (mouse P–gp (mP–gp); Equation (S1), only activation for NBD–C4, constraint K1≤K2 for NBD–C8 and NBD–LysoMPE, [75% confidence interval], listed as NBD-C8): 494 [380, 598] % of the basal ATPase activity; Emax (mouse P–gp (mP–gp); [14]): 497%; Effect on P–gp ATPase activity (mouse P–gp (mP–gp)): both activation and inhibition
CCCCCCCCCCCCCC(=O)OCC(O)COP(=O)(O)OCCNc1ccc([N+](=O)[O-])c2nonc12 (stereo not drawn) [NBD–LysoMPE]	23	20	6	3	3	3	0	122	0	99	146	0	1.09	100	100	129	0	0.714	100	100	V3, ATPase activity of P–gp with 3 amphiphiles bound (mouse P–gp (mP–gp); Equation (9), n = 5): 116%; V4, ATPase activity of P–gp with 4 amphiphiles bound (mouse P–gp (mP–gp); Equation (9), n = 5): 97%; V5, ATPase activity of P–gp with 5 amphiphiles bound (mouse P–gp (mP–gp); Equation (9), n = 5): 0%; Kd (mouse P–gp (mP–gp); [8]): 0.588 µM; Kd (mouse P–gp (mP–gp); [9]): > 5 µM; Kd (mouse P–gp (mP–gp); [10]): ≤ 15 µM; V2, residual activity at infinite modulator concentration (mouse P–gp (mP–gp); [11]): 0%; V1, maximal ATPase activation (mouse P–gp (mP–gp); Equation (S1), in any case (with or without constraints on K1, K2)): < 126%; V2, residual activity at infinite modulator concentration (mouse P–gp (mP–gp); [13]): 0%; Emax (mouse P–gp (mP–gp); [13]): 102%; Emax (mouse P–gp (mP–gp); [14]): 106%; Effect on P–gp ATPase activity (mouse P–gp (mP–gp)): mostly inhibition
